From publication PMC10607160 (International Journal of Molecular Sciences, 2023)
Like-named read-outs stand apart in the source and are kept apart here.

Tests used:
[1] = molecular target: E. coli Trx1 / E. coli TrxR (thioredoxin system) (Escherichia coli, UniProt P0AA25); test: Disulfide bond reduction assay by EcoTrx1 (NADPH absorbance at 340 nm); format: biochemical; conditions: for Absorbance Asample1 / Absorbance Asample2 / Absorbance Average1, 2: A340, with TrxR
Protocol: The assay employed was based on changes in the absorbance at 340 nm from the oxidation of NADPH using a modified version of the protocol laid out in [90]. Briefly, the decrease in A340 was measured in 96-well plates containing 100 μL of 200 mM potassium phosphate pH 7.4, 1 mM EDTA, 0.1 mg/mL BSA, 200 μM NADPH, 2 μM E. coli Trx1 and 10 nM E. coli TrxR for 5 min at 25 °C with insulin at a final concentration of 0.067 mM (0.2 mM disulfides) (see Table S2). The reduction of con7 was measured at a final concentration of 0.2 mM (see Table S3). Blanks were samples without EcoTrxR.
Figure 4 Reduction of (A) con7 and (B) insulin by EcoTrx1. The assay mixture contains 200 mM potassium phosphate pH 7.4, 1 mM EDTA, 0.1 mg/mL BSA, 200 μM NADPH, 2 μM Escherichia coli Trx1, 10 nM E. coli TrxR, (A) 0.2 mM con7 or (B) 0.067 mM (0.2 mM disulfides) insulin. The reaction was carried out at 25 °C by monitoring the decrease of NADPH absorbance at 340 nm for (A) con7 in the absence ( [drawing 1] ) or presence of TrxR ( [drawing 2] ) and (B) insulin in the absence ( [drawing 3] ) or presence of TrxR ( [drawing 4] ).

[2] = molecular target: T1, human GnRHR I (Homo sapiens, UniProt P30968); test: Competitive radioligand binding (125I-DTyr6-His5-GnRH) on membranes from HEK 293 cells stably expressing GnRHR I
T1 construct: expressed in transfected cells
T1 sequence (P30968 1-328): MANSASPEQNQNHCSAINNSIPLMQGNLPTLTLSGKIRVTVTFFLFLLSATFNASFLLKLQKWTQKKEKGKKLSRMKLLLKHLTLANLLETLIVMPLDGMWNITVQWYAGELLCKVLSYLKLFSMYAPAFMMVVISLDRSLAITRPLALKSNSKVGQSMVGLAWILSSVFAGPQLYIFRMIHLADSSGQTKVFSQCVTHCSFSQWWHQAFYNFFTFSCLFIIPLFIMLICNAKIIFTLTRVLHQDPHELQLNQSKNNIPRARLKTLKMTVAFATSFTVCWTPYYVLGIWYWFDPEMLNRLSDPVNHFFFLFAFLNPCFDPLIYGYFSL

[3] = competition with 125I-DTyr6-His5-GnRH, HEK 293 membranes, 4 °C 16-19 h, one-site model, read-out: apparent binding affinity (IC50)

Sequence of E. coli Trx1 / E. coli TrxR (thioredoxin system) (P0AA25 2-109): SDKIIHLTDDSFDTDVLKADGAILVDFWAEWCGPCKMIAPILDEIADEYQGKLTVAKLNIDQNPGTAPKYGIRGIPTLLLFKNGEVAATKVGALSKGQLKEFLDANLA

insulin
0.236: Absorbance Asample1 ([1]; 0 sec) | Absorbance Asample1 ([1]; 9 sec) | Absorbance Asample1 ([1]; 18 sec) | Absorbance Asample1 ([1]; 36 sec)
0.246: Absorbance Average1, 2 ([1]; 27 sec) | Absorbance Average1, 2 ([1]; 36 sec) | Absorbance Average1, 2 ([1]; 45 sec) | Absorbance Average1, 2 ([1]; 63 sec)
0.243: Absorbance Average1, 2 ([1]; 162 sec) | Absorbance Average1, 2 ([1]; 171 sec) | Absorbance Average1, 2 ([1]; 180 sec) | Absorbance Average1, 2 ([1]; 198 sec) | Absorbance Average1, 2 ([1]; 216 sec)
0.232: Absorbance Asample1 ([1]; 153 sec) | Absorbance Asample1 ([1]; 189 sec) | Absorbance Asample1 ([1]; 207 sec) | Absorbance Asample1 ([1]; 225 sec) | Absorbance Asample1 ([1]; 234 sec)
0.247: Absorbance Average1, 2 ([1]; 0 sec) | Absorbance Average1, 2 ([1]; 9 sec) | Absorbance Average1, 2 ([1]; 18 sec)
0.235: Absorbance Asample1 ([1]; 27 sec) | Absorbance Asample1 ([1]; 45 sec) | Absorbance Asample1 ([1]; 54 sec) | Absorbance Asample1 ([1]; 63 sec) | Absorbance Asample1 ([1]; 72 sec) | Absorbance Asample1 ([1]; 90 sec) | Absorbance Asample1 ([1]; 117 sec) | Absorbance Asample1 ([1]; 135 sec)
0.256: Absorbance Asample2 ([1]; 36 sec) | Absorbance Asample2 ([1]; 45 sec) | Absorbance Asample2 ([1]; 63 sec)
0.251: Absorbance Asample2 ([1]; 243 sec) | Absorbance Asample2 ([1]; 252 sec) | Absorbance Asample2 ([1]; 279 sec)
0.250: Absorbance Asample2 ([1]; 261 sec) | Absorbance Asample2 ([1]; 270 sec) | Absorbance Asample2 ([1]; 288 sec) | Absorbance Asample2 ([1]; 297 sec)
0.255: Absorbance Asample2 ([1]; 54 sec) | Absorbance Asample2 ([1]; 72 sec) | Absorbance Asample2 ([1]; 90 sec) | Absorbance Asample2 ([1]; 108 sec)
0.231: Absorbance Asample1 ([1]; 243 sec) | Absorbance Asample1 ([1]; 252 sec) | Absorbance Asample1 ([1]; 279 sec)
0.234: Absorbance Asample1 ([1]; 99 sec) | Absorbance Asample1 ([1]; 108 sec) | Absorbance Asample1 ([1]; 126 sec) | Absorbance Asample1 ([1]; 144 sec)
0.254: Absorbance Asample2 ([1]; 81 sec) | Absorbance Asample2 ([1]; 99 sec)
0.240: Absorbance Average1, 2 ([1]; 261 sec) | Absorbance Average1, 2 ([1]; 270 sec) | Absorbance Average1, 2 ([1]; 288 sec) | Absorbance Average1, 2 ([1]; 297 sec)
0.242: Absorbance Average1, 2 ([1]; 153 sec) | Absorbance Average1, 2 ([1]; 189 sec) | Absorbance Average1, 2 ([1]; 207 sec) | Absorbance Average1, 2 ([1]; 225 sec) | Absorbance Average1, 2 ([1]; 234 sec)
successful: reduction of disulfide bond by the thioredoxin system ([1]; decrease of NADPH absorbance over time in samples containing TrxR)
0.229: Absorbance Asample1 ([1]; 297 sec)
0.245: Absorbance Average1, 2 ([1]; 54 sec) | Absorbance Average1, 2 ([1]; 72 sec) | Absorbance Average1, 2 ([1]; 90 sec) | Absorbance Average1, 2 ([1]; 108 sec)
0.233: Absorbance Asample1 ([1]; 81 sec) | Absorbance Asample1 ([1]; 162 sec) | Absorbance Asample1 ([1]; 171 sec) | Absorbance Asample1 ([1]; 180 sec) | Absorbance Asample1 ([1]; 198 sec) | Absorbance Asample1 ([1]; 216 sec)
0.241: Absorbance Average1, 2 ([1]; 243 sec) | Absorbance Average1, 2 ([1]; 252 sec) | Absorbance Average1, 2 ([1]; 279 sec)
0.253: Absorbance Asample2 ([1]; 117 sec) | Absorbance Asample2 ([1]; 126 sec) | Absorbance Asample2 ([1]; 135 sec) | Absorbance Asample2 ([1]; 144 sec) | Absorbance Asample2 ([1]; 162 sec)
0.244: Absorbance Average1, 2 ([1]; 81 sec) | Absorbance Average1, 2 ([1]; 99 sec) | Absorbance Average1, 2 ([1]; 117 sec) | Absorbance Average1, 2 ([1]; 126 sec) | Absorbance Average1, 2 ([1]; 135 sec) | Absorbance Average1, 2 ([1]; 144 sec)
0.257: Absorbance Asample2 ([1]; 0 sec) | Absorbance Asample2 ([1]; 9 sec) | Absorbance Asample2 ([1]; 18 sec) | Absorbance Asample2 ([1]; 27 sec)
0.252: Absorbance Asample2 ([1]; 153 sec) | Absorbance Asample2 ([1]; 171 sec) | Absorbance Asample2 ([1]; 180 sec) | Absorbance Asample2 ([1]; 189 sec) | Absorbance Asample2 ([1]; 198 sec) | Absorbance Asample2 ([1]; 207 sec) | Absorbance Asample2 ([1]; 216 sec) | Absorbance Asample2 ([1]; 225 sec) | Absorbance Asample2 ([1]; 234 sec)
0.230: Absorbance Asample1 ([1]; 261 sec) | Absorbance Asample1 ([1]; 270 sec) | Absorbance Asample1 ([1]; 288 sec)

O=C1c2c(O)ccc(O)c2C(=O)c2c(NCCNCCO)ccc(NCCNCCO)c21 [mitoxantrone, reference compound]
> 1000 nM: IC50 [2, 3]
did not bind: apparent binding affinity (IC50) ([2]; competition with 125I-DTyr6-His5-GnRH, HEK 293 membranes, 4 °C 16-19 h, one-site model)

CCNC(=O)[C@@H]1CCCN1C(=O)[C@H](CCCNC(=N)N)NC(=O)[C@H](CC(C)C)NC(=O)[C@@H](CS)NC(=O)[C@H](Cc1ccc(O)cc1)NC(=O)[C@H](CO)NC(=O)[C@H](Cc1c[nH]c2ccccc12)NC(=O)[C@H](Cc1c[nH]cn1)NC(=O)[C@@H]1CCC(=O)N1 [analogue 2, [DCys^6, Pro^9-NHEt]GnRH]
0.7 nM: IC50 [2, 3]

CCNC(=O)[C@@H]1CCCN1C(=O)[C@H](CCCNC(=N)N)NC(=O)[C@H](CC(C)C)NC(=O)[C@@H](CCCCNC(=O)CCCCCNC(=O)CCSSCC(=O)NCCCCNc1ccc(O)c2c1C(=O)c1ccccc1C2=O)NC(=O)[C@H](Cc1ccc(O)cc1)NC(=O)[C@H](CO)NC(=O)[C@H](Cc1c[nH]c2ccccc12)NC(=O)[C@H](Cc1c[nH]cn1)NC(=O)[C@@H]1CCC(=O)N1 [con6]
0.07 nM: IC50 [2, 3]

CCNC(=O)[C@@H]1CCCN1C(=O)[C@H](CCCNC(=N)N)NC(=O)[C@H](CC(C)C)NC(=O)[C@@H](CCCCN)NC(=O)[C@H](Cc1ccc(O)cc1)NC(=O)[C@H](CO)NC(=O)[C@H](Cc1c[nH]c2ccccc12)NC(=O)[C@H](Cc1c[nH]cn1)NC(=O)[C@@H]1CCC(=O)N1 [analogue 4, (DLys^6, Pro^9-NHEt)GnRH]
2.5 nM: IC50 [2, 3]

CCNC(=O)[C@@H]1CCCN1C(=O)[C@H](CCCNC(=N)N)NC(=O)[C@H](CC(C)C)NC(=O)[C@@H](CSSCCC(=O)OCCNCCNc1ccc(NCCNCCO)c2c1C(=O)c1c(O)ccc(O)c1C2=O)NC(=O)[C@H](Cc1ccc(O)cc1)NC(=O)[C@H](CO)NC(=O)[C@H](Cc1c[nH]c2ccccc12)NC(=O)[C@H](Cc1c[nH]cn1)NC(=O)[C@@H]1CCC(=O)N1 [con3]
0.07 nM: IC50 [2]
